Assay [1] deals with T1, Phosphodiesterase 4 (Homo sapiens, UniProt P27815+Q08499+Q07343+Q08493). The experiment in a line: In vitro binding activity towards catalytic site of phosphodiesterase 4. The format is protein assay.
The target of assay [2] is T1, Phosphodiesterase 4. The experiment in a line: Binding activity towards Rolipram binding site of phosphodiesterase 4 at concentration 10 uM. The format is protein assay.
For assay [3], the target named is T1, Phosphodiesterase 4. Nature of the assay: Ratio of binding activity at catalytic site to Rolipram binding site of PDE4. It counts as protein assay.
The target of assay [4] is T1, Phosphodiesterase 4. The experiment in a line: Binding activity towards Rolipram binding site of phosphodiesterase 4. It counts as protein assay.
In assay [5] the target is T1, Phosphodiesterase 4. The experiment in a line: Inhibition of phosphodiesterase 4 at 20 uM. It counts as protein assay.
The target in assay [6] is T1, Phosphodiesterase 4. Nature of the assay: Inhibition of phosphodiesterase 4. The format is protein assay.
For assay [7], the target named is cGMP-dependent 3',5'-cyclic phosphodiesterase (Homo sapiens) (UniProt O00408). The experiment in a line: Inhibition of phosphodiesterase 2 at 200 uM.
Assay [8] deals with T2, Phosphodiesterase 1 (Homo sapiens, UniProt P54750+Q01064+Q14123). Nature of the assay: Inhibition of phosphodiesterase 1 at 200 uM. The format is protein assay.
For assay [9], the target named is Phosphodiesterase 3 (Homo sapiens) (UniProt Q14432+Q13370). Nature of the assay: Inhibition of phosphodiesterase 3 at 200 uM. The format is protein assay.
Assay [10] has as its target cGMP-specific 3',5'-cyclic phosphodiesterase (Homo sapiens) (UniProt O76074). Nature of the assay: Inhibition of phosphodiesterase 5 at 200 uM.
In assay [11] the target is T1, Phosphodiesterase 4. The experiment in a line: Inhibition of Rolipram binding to phosphodiesterase 4 at 1 uM. The format is protein assay.
Assay [12] deals with T2, Phosphodiesterase 1. Nature of the assay: Inhibition of phosphodiesterase 1 at 20 uM. It counts as protein assay.
The target in assay [13] is cGMP-dependent 3',5'-cyclic phosphodiesterase (Homo sapiens) (UniProt O00408). The settings on record: 200 uM.
Assay [14] has as its target T1, Phosphodiesterase 4. Nature of the assay: Inhibition of Rolipram binding to phosphodiesterase 4 at 20 uM. The format is protein assay.
Assay [15] addresses T1, Phosphodiesterase 4. Nature of the assay: Inhibition of Rolipram binding to phosphodiesterase 4 at 100 uM. The format is protein assay.
The target in assay [16] is T1, Phosphodiesterase 4. Nature of the assay: Inhibition of phosphodiesterase 4 at 200 uM. The format is protein assay.
The target of assay [17] is T1, Phosphodiesterase 4. The experiment in a line: Inhibition of Rolipram binding to phosphodiesterase 4. It counts as protein assay. The settings on record: concentration not given here.

Chain of cGMP-dependent 3',5'-cyclic phosphodiesterase (Homo sapiens) (O00408 whole entry): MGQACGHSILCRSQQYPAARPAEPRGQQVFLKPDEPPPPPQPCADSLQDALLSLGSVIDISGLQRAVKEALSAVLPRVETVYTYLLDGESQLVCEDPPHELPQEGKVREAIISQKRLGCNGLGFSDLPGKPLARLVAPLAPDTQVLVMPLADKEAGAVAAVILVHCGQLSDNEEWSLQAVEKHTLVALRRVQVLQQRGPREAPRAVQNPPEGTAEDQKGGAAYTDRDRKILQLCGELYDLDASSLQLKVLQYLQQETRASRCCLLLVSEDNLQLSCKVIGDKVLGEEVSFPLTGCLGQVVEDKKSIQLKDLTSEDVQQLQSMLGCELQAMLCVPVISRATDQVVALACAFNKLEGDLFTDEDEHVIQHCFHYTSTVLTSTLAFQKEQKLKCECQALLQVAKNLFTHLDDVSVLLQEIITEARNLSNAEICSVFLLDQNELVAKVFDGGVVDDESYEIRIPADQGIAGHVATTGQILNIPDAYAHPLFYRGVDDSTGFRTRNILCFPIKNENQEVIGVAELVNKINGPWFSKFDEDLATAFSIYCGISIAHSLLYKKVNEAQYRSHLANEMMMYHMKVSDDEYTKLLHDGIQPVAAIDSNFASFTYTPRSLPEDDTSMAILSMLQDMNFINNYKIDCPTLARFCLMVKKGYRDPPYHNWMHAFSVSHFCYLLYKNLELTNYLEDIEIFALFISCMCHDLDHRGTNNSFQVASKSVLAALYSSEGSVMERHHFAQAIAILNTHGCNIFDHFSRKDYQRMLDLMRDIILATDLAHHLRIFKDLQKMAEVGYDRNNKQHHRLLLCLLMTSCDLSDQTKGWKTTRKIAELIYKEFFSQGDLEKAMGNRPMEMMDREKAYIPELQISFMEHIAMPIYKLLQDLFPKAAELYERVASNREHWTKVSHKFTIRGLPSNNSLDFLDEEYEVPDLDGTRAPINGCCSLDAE

For the molecule `COc1ccc(S(=O)(=O)N(Cc2ccccn2)C2CCc3ccccc32)cc1OC` (stereo unspecified), on Phosphodiesterase 4 [1], the IC50 – broadly, the midpoint of a concentration-inhibition curve – was determined as 5.3 µM. Further, on Phosphodiesterase 4 [2], the inhibition (as a rule, how much of the control response was suppressed) worked out at 12%. Also, the Ratio at Phosphodiesterase 4 [3] is less than 0.5.
With `COc1ccc(S(=O)(=O)N(CCC#N)Cc2ccco2)cc1OC1CCCC1`, the IC50 at Phosphodiesterase 4 [4] amounted to 10 µM. On Phosphodiesterase 4 [5], this molecule gave an inhibition of 32%. In addition, the Ratio on Phosphodiesterase 4 [3] is more than 1.
Turning to `COc1ccc(S(=O)(=O)n2c(-c3ccccc3)cc3ncccc3c2=O)cc1OC`, the IC50 on Phosphodiesterase 4 [6] amounted to 1.5 µM. Also, on Phosphodiesterase 4 [2], the inhibition was determined as 20%.
For `COc1ccc(S(=O)(=O)N(CCC#N)C2CCc3ccccc32)cc1OC` (stereo unspecified), the half-inhibitory concentration (IC50) at Phosphodiesterase 4 [1] was determined as 4.1 µM. At Phosphodiesterase 4 [2], this molecule registered an inhibition of 26%. In addition, on Phosphodiesterase 4 [3], the Ratio was less than 0.4.
In the case of `COc1ccc(S(=O)(=O)N(CC(C)=O)Cc2ccco2)cc1OC`, the IC50 worked out at 35 µM on Phosphodiesterase 4 [4] and 24 µM on Phosphodiesterase 4 [1]. Besides, the Ratio on Phosphodiesterase 4 [3] turned out to be 0.69.
The matching figures for `CCCN(Cc1ccco1)S(=O)(=O)c1ccc(OC)c(OC)c1`: 15 µM, 1.5 µM and 0.1.
For the molecule `COc1ccc(C(=O)NC2CCc3ccccc32)cc1OC` (stereo unspecified), the inhibition in assay [7] was found to be 37%; on Phosphodiesterase 1 [8], 14%; in assay [9], 53%; in [10] it was 24%. Moreover, the figures for the IC50 on Phosphodiesterase 4 [4] and at Phosphodiesterase 4 [1] were 3 µM and 11 µM, respectively. The Ratio on Phosphodiesterase 4 [3] stood at 3.7.
As for `COc1ccc(S(=O)(=O)N(CC#N)Cc2ccco2)cc1OC`, the inhibition was 36% on Phosphodiesterase 4 [2] and 30% against Phosphodiesterase 4 [5]. Moreover, the Ratio at Phosphodiesterase 4 [3] was more than 1.
At Phosphodiesterase 4 [1], `COc1ccc(S(=O)(=O)N2CCc3ccccc32)cc1OC` returned an IC50 of 4.3 µM. At Phosphodiesterase 4 [2], this molecule displayed an inhibition of 18%. The Ratio on Phosphodiesterase 4 [3] is less than 0.43.
In turn, `COc1ccc(S(=O)(=O)NC2CCc3ccccc32)cc1OC` (stereo unspecified) showed an IC50 at Phosphodiesterase 4 [1] of 6 µM. The molecule further returned an inhibition on Phosphodiesterase 4 [2] of 12%. On Phosphodiesterase 4 [3], the Ratio is less than 0.6.
Consider `COc1ccc(S(=O)(=O)N(Cc2cccnc2)S(C)(=O)=O)cc1OCCCCCc1ccccc1`, for which the half-maximal inhibitory concentration (IC50) at Phosphodiesterase 4 [1] turned out to be 1.5 µM. Besides, the inhibition on Phosphodiesterase 4 [11] is 18%. Moreover, the Ratio at Phosphodiesterase 4 [3] was less than 1.
On to `CCCN(Cc1ccc(C(=O)NC)cc1)S(=O)(=O)c1ccc(OC)c(OC)c1`, for which the IC50 on Phosphodiesterase 4 [4] was 4.3 µM; on Phosphodiesterase 4 [1] it was 1.9 µM. In addition, the Ratio at Phosphodiesterase 4 [3] turned out to be 0.44.
As to `COc1ccc(C2CNC(=O)C2)cc1OC1CCCC1` (stereo unspecified) [ROLIPRAM], the IC50 at Phosphodiesterase 1 [12] was more than 200 µM. The inhibition in assay [9] is 27%; in [13], 28%.
The molecule `COc1ccc(S(=O)(=O)N(CCC#N)C2CCCc3ccccc32)cc1OC` (stereo unspecified) came in with a half-maximal inhibitory concentration (IC50) at Phosphodiesterase 4 [1] of 6.4 µM. This molecule also gave an inhibition at Phosphodiesterase 4 [2] of 30%. Also, at Phosphodiesterase 4 [3], the Ratio is less than 0.6.
The molecule `COc1ccc(S(=O)(=O)n2c(-c3ccccc3)cc3ccccc3c2=O)cc1OC` displayed an IC50 on Phosphodiesterase 4 [6] of 0.6 µM. Moreover, the inhibition on Phosphodiesterase 4 [2] was 31%.
For `COc1ccc2c(c1)C(NS(=O)(=O)c1ccc(OC)c(OC)c1)CC2` (stereo unspecified), the IC50 at Phosphodiesterase 4 [1] turned out to be 2.5 µM. Besides, the inhibition on Phosphodiesterase 4 [2] was 2%. Besides, the Ratio at Phosphodiesterase 4 [3] is less than 0.25.
The matching figures for `COc1ccc(S(=O)(=O)N(CCC#N)Cc2ccco2)cc1OC`: 10 µM, 37% and less than 1.
In turn, `COc1ccc(S(=O)(=O)NC2CCc3cc(Cl)ccc32)cc1OC` (stereo unspecified) showed an IC50 at Phosphodiesterase 4 [1] of 5.2 µM. Besides, at Phosphodiesterase 4 [2], the inhibition worked out at 12%. Moreover, the Ratio at Phosphodiesterase 4 [3] is less than 0.5.
On to `COc1ccc(S(=O)(=O)n2ccc3ccccc3c2=O)cc1OC`, for which the values for the concentration for half-maximal inhibition (IC50) at Phosphodiesterase 4 [14] and against Phosphodiesterase 4 [6] were 4 µM and 0.5 µM, respectively.
Consider `COc1ccc(S(=O)(=O)NCc2cccnc2)cc1OC`, for which the inhibition on Phosphodiesterase 4 [15] stood at 41%; on Phosphodiesterase 4 [16], 39%.
Consider `COc1ccc(S(=O)(=O)n2c(=O)cc(-c3ccccc3)c3ccccc32)cc1OC`, for which, at Phosphodiesterase 4 [6], the IC50 came to 0.5 µM. Moreover, the inhibition at Phosphodiesterase 4 [2] is 14%.
On to `COc1ccc(S(=O)(=O)N(Cc2cccnc2)C2CCc3ccccc32)cc1OC` (stereo unspecified), for which the IC50 at Phosphodiesterase 4 [1] is 9 µM. The inhibition on Phosphodiesterase 4 [2] was 20%. The Ratio on Phosphodiesterase 4 [3] is less than 0.9.
For `COc1ccc(S(=O)(=O)N(Cc2ccccc2)Cc2cccnc2)cc1OC`, the IC50 at Phosphodiesterase 4 [1] is 5 µM. This molecule also had an inhibition on Phosphodiesterase 4 [17] of 8%. The Ratio at Phosphodiesterase 4 [3] is less than 1.
`COc1ccc(S(=O)(=O)N(Cc2ccccc2)Cc2ccccn2)cc1OC`: the concentration for half-maximal inhibition (IC50) at Phosphodiesterase 4 [1] was determined as 7.8 µM. At Phosphodiesterase 4 [2], the inhibition turned out to be 5%. Moreover, at Phosphodiesterase 4 [3], the Ratio was less than 0.7.
In turn, `COC(=O)CN(Cc1ccco1)S(=O)(=O)c1ccc(OC)c(OC)c1` had a 50% inhibitory concentration (IC50) at Phosphodiesterase 4 [1] of 10 µM. Further, the inhibition on Phosphodiesterase 4 [15] came to 23%. For the same molecule, the Ratio on Phosphodiesterase 4 [3] is less than 1.
As for `COc1ccc(S(=O)(=O)NCCC#N)cc1OC`, the IC50 at Phosphodiesterase 4 [4] turned out to be 50 µM; on Phosphodiesterase 4 [6], 17.6 µM.
`COc1ccc(S(=O)(=O)NC2CCCC2)cc1OC`: the IC50 on Phosphodiesterase 4 [1] is 100 µM. Besides, at Phosphodiesterase 4 [15], the inhibition was 19%. The Ratio on Phosphodiesterase 4 [3] was less than 1.
For the molecule `COc1ccc(S(=O)(=O)N(Cc2cccnc2)S(=O)(=O)CCNS(=O)(=O)c2ccccc2)cc1OC`, the IC50 at Phosphodiesterase 4 [4] is 24 µM; on Phosphodiesterase 4 [1] it was 3 µM. The Ratio at Phosphodiesterase 4 [3] was 0.13.
`COc1ccc(C(=O)N2CCCc3ccccc32)cc1OC`: the inhibition in [7] worked out at 21%; at Phosphodiesterase 1 [8], 14%; in assay [9] it was 31%; in assay [10] it was 12%; at Phosphodiesterase 4 [2] it was 15%. On Phosphodiesterase 4 [1], this molecule returned an IC50 of 20 µM. The Ratio on Phosphodiesterase 4 [3] is less than 1.
In the case of `COc1ccc(S(=O)(=O)N(CCC#N)CC2CCCO2)cc1OC` (stereo unspecified), the IC50 was determined as 112 µM at Phosphodiesterase 4 [4] and 19 µM on Phosphodiesterase 4 [1]. Also, the Ratio at Phosphodiesterase 4 [3] was determined as 0.17.
In the case of `COc1ccc(S(=O)(=O)N(Cc2cccnc2)S(C)(=O)=O)cc1OC1CCCC1`, the IC50 was found to be 4.5 µM on Phosphodiesterase 4 [4] and 2 µM at Phosphodiesterase 4 [1]. In addition, the Ratio on Phosphodiesterase 4 [3] came to 0.44.
`COc1ccc(S(=O)(=O)N(CCCC#N)Cc2ccco2)cc1OC` came in with an IC50 at Phosphodiesterase 4 [1] of 9 µM. This molecule showed an inhibition on Phosphodiesterase 4 [2] of 37%. Besides, on Phosphodiesterase 4 [3], the Ratio is less than 1.
As to `COc1ccc(S(=O)(=O)N(Cc2cccnc2)S(C)(=O)=O)cc1OC`, the IC50 was found to be 50 µM at Phosphodiesterase 4 [4] and 6 µM on Phosphodiesterase 4 [1]. Also, the Ratio on Phosphodiesterase 4 [3] was 0.12.

Values taken from ChEMBL document CHEMBL1130590, “Aryl sulfonamides as selective PDE4 inhibitors” (Bioorg Med Chem Lett, 1998).
